According to patent US20100130500A1, “METHODS AND COMPOSITIONS FOR THE TREATMENT OF PULMONARY HYPERTENSION OF THE NEWBORN” (BIOMARIN PHARMACEUTICAL INC., priority 2004, published 2010):
Values belong to the molecule of their own block, whether it stands above or below them.

What was measured:
[1] = Physical stability of crystal forms (temperature, humidity, phase equilibration); format: physicochemical
[2] = Hygroscopicity / water adsorption of crystal forms; format: physicochemical; conditions: dihydrochloride
infants with PPHN = conditions: cited from earlier work

- phase equilibration tests of suspensions ([1]; tetrahydrofuran or tertiary-butyl methyl ether, stirred five days and 18 hours respectively, nitrogen, room temperature, filtration and air-drying): unchanged polymorph form A
- adsorbs water to a content of [2]: about 3 percent by weight
SMILES: C[C@H](O)[C@H](O)[C@H]1CNc2nc(N)[nH]c(=O)c2N1.Cl.Cl [Polymorph A, (6R)-L-erythro-tetrahydrobiopterin dihydrochloride]

SMILES: C[C@H](O)[C@H](O)[C@H]1CNc2nc(N)[nH]c(=O)c2N1.Cl.Cl [Polymorph B, (6R)-L-erythro-tetrahydrobiopterin dihydrochloride]
- stability of the crystal form ([1]; dihydrochloride): highest thermodynamic stability above about 20 °C

- adsorbs water to a content of [2]: about 3 percent by weight
SMILES: C[C@H](O)[C@H](O)[C@H]1CNc2nc(N)[nH]c(=O)c2N1.Cl.Cl [Polymorph F, (6R)-L-erythro-tetrahydrobiopterin dihydrochloride]

- adsorbs water to a content of [2]: about 2.0 percent by weight
SMILES: C[C@H](O)[C@H](O)[C@H]1CNc2nc(N)[nH]c(=O)c2N1.Cl.Cl [Polymorph K, (6R)-L-erythro-tetrahydrobiopterin dihydrochloride]

SMILES: Nc1ncnc2c1ncn2[C@@H]1O[C@H](COP(=O)(O)OP(=O)(O)OP(=O)(O)O)[C@@H](O)[C@H]1O [adenosine triphosphate]
- infants with a response (infants with PPHN): 5 out of 6

- relative humidity at which the form is stable ([1]; ambient temperatures, dihydrochloride): less than 70%
SMILES: C[C@H](O)[C@H](O)[C@H]1CNc2nc(N)[nH]c(=O)c2N1.Cl.Cl [hydrate form D, (6R)-L-erythro-tetrahydrobiopterin dihydrochloride]

- relative humidity at which it is transformed back into form E [1]: above 75%
SMILES: C[C@H](O)[C@H](O)[C@H]1CNc2nc(N)[nH]c(=O)c2N1.Cl.Cl [polymorph J, (6R)-L-erythro-tetrahydrobiopterin dihydrochloride]

SMILES: c1ccc(CC2=NCCN2)cc1 [tolazoline]
- response rate (infants with PPHN): 60%
